In US20230301981A1, “TLR7/8 ANTAGONISTS AND USES THEREOF” (Merck Patent GmbH, priority 2020, published 2023):
Where two headings read alike, the source gives them in different places.

What was measured:
TLR7 = molecular target: T1, TLR7 (Homo sapiens, UniProt Q9NYK1); experiment: HEK293 TLR7/NFKb reporter cell assay with R848 agonist; format: cell-based; set-up: expressed in transfected cells; host or cells: HEK293
T1 sequence (Q9NYK1 27-1049): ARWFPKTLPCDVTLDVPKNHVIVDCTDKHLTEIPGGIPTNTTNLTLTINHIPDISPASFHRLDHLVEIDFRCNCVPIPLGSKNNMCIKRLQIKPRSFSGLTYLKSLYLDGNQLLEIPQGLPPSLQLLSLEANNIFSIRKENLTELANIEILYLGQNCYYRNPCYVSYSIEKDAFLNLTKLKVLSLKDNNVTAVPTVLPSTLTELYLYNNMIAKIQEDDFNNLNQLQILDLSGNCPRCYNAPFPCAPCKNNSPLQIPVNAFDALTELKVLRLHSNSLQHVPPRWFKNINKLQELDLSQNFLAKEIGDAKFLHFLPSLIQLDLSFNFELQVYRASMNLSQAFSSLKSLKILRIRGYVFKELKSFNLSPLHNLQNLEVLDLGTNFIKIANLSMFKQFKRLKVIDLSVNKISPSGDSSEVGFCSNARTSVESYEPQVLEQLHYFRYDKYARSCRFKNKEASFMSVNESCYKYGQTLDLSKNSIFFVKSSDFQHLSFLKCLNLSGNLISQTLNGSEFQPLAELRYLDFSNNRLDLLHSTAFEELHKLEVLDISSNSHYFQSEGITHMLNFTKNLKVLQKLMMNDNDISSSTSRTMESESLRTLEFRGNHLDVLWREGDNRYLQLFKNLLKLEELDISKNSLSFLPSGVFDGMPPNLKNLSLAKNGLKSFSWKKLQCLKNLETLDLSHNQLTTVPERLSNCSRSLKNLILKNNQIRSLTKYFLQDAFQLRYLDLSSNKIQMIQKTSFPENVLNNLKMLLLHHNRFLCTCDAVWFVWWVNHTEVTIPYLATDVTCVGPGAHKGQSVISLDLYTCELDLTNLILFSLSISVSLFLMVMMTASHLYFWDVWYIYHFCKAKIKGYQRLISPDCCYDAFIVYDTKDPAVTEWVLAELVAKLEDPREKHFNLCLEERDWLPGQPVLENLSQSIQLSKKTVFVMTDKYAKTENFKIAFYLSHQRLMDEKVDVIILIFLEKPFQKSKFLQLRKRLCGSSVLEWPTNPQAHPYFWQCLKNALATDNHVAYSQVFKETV
Method: Into 384 CulturePlates (Corning 3707) was placed 5000 c/w of HEK293 TLR7/NFKb reporter cells in 30 µL DMEM without phenol red and 10% i.a. FCS and 2 mM L-glutamine. The cells were incubated for 24 h at 37° C., 10% carbon dioxide and 90% relative humidity. 3 µL of controls, standards, and compounds were dispensed to wells, incubated for 30 min then 3 µL of R848 agonist (Resiquimod) in 20 mM HEPES buffer was added. After incubation for 5 hours, it was allowed to stand at room temperature for 15 min. 10 µL of Steady-Glo substrate reagent was added and assay plates were shaken for 5 min at 1500 rpm. The assay plate was allowed to sit for 30 min at room temperature and then read on an EnVision plate reader.

[1] = test system: complex primary human cell systems; experiment: BioMAP Diversity PLUS phenotypic panel; format: cell-based; conditions: hydroxychloroquine at 33 µM versus Pyronaridine at 3.3 µM
Method: Pyronaridine was profiled in the BioMAP® Diversity PLUS (BioSeek LLC, South San Francisco, CA) panel comprised of a well characterized set of complex primary human cell systems at 10, 3.3, 1.1, and 0.3 µM. Pyronaridine was tested across 12 BioMAP® Systems containing early passage primary human cells cultured alone or as cocultures and stimulated with various proinflammatory or immunomodulatory stimuli. […] A BioMAP activity profile was generated based on the levels of various readout parameters including cytokines or growth factors, expression of surface molecules, and cell proliferation. […]
Differentiating biomarkers are defined when one profile has a readout outside of the significance envelope with an effect size > 20% (|log10 ratio| > 0.1), and the readout for the other profile is either inside the envelope or in the opposite direction.

| IC50 (TLR7; Example 4 results table, assay/readout not specified, read-out: Potency) [µM] | IC50 (TLR7; HEK293 TLR7/NFKb reporter cells, R848 agonist, read-out: IC50 TLR7 (IL6 READOUT) HEK TRANSFECTED) [µM] | SMILES | BioMAP Diversity PLUS profile, overlay comparison [1] |
| --- | --- | --- | --- |
| < 1 | 5 | COc1ccc2nc3cc(Cl)ccc3c(Nc3cc(CN4CCCC4)c(O)c(CN4CCCC4)c3)c2n1 [Compound 1, Pyronaridine] | – |
| – | – | CCN(CCO)CCCC(C)Nc1ccnc2cc(Cl)ccc12 (stereo not drawn) [HYDROXY-CHLOROQUINE HCQ, hydroxychloroquine] | noticeable similar pattern |
